Laboratory results reported in ChEMBL document CHEMBL3885861, “Open TG-GATES”.

Organism: Rattus norvegicus
Test: Open TG-GATES - Regimen: Single
Assay type: toxicity, organism-based, Sprague-Dawley
Parameters: regimen Single, gender Male, age 6 weeks
Settings: in vivo, sc, 2 mg/kg, route subcutaneous injection, dose 2000 ug/Kg, dose level High; for APTT / Bas / Eos / Fbg / Hb / Ht / Lym / MCH / MCHC / MCV / Mono / Neu / PT / Plat / RBC / Ret / WBC: tissue Blood; for KIDNEY_L / KIDNEY_R / KIDNEY_TOTAL: tissue Kidney; for LIVER: tissue Liver; for A/G / ALP / ALT / AST / BUN / CRE / Ca / Cl / DBIL / GLC / IP / K / LDH / Na / PL / RALB / TBIL / TC / TG / TP / gamma-GTP: tissue Plasma

## CC(=O)O.N=C(N)NCCC[C@@H](NC(=O)[C@@H]1CCCN1C(=O)[C@@H]1CSSCCC(=O)N[C@@H](Cc2ccc(O)cc2)C(=O)N[C@@H](Cc2ccccc2)C(=O)N[C@@H](CCC(N)=O)C(=O)N[C@@H](CC(N)=O)C(=O)N1)C(=O)NCC(N)=O [DESMOPRESSIN ACETATE]
3 h
  TERMINAL_BW: 202.2 g
  APTT: 18 s
  Bas: 0%
  Eos: 1.6%
  Fbg: 237.8 mg/dL
  Hb: 12.9 g/dL
  Ht: 39.6%
  Lym: 64.8%
  MCH: 21.3 pg
  MCHC: 32.6%
  MCV: 65.5 fL
  Mono: 10.6%
  Neu: 22.8%
  PT: 12.3 s
  Plat: 117.4 x10_4/uL
  RBC: 606.2 x10_4/ul
  Ret: 9.2%
  WBC: 85.4 x10_2/uL
  KIDNEY_L: 0.9 g
  KIDNEY_R: 1 g
  KIDNEY_TOTAL: 1.9 g
  LIVER: 9.5 g
  A/G: 2
  ALP: 1436 IU/L
  ALT: 38.6 IU/L
  AST: 70.8 IU/L
  BUN: 22.6 mg/dL
  CRE: 0.4 mg/dL
  Ca: 11.7 mg/dL
  Cl: 97 meq/L
  DBIL: 0.01 mg/dL
  GLC: 217 mg/dL
  IP: 9.5 mg/dL
  K: 4.6 meq/L
  LDH: 134.8 IU/L
  Na: 130.6 meq/L
  PL: 157.4 mg/dL
  RALB: 4 g/dL
  TBIL: 0.048 mg/dL
  TC: 82.4 mg/dL
  TG: 89 mg/dL
  TP: 5.9 g/dL
  gamma-GTP: 0.8 IU/L
6 h
  TERMINAL_BW: 204.1 g
  APTT: 18.4 s
  Bas: 0%
  Eos: 1.2%
  Fbg: 247.9 mg/dL
  Hb: 13.2 g/dL
  Ht: 40%
  Lym: 65.8%
  MCH: 21.8 pg
  MCHC: 33%
  MCV: 66 fL
  Mono: 11.8%
  Neu: 21%
  PT: 12.1 s
  Plat: 120.4 x10_4/uL
  RBC: 606.4 x10_4/ul
  Ret: 10.1%
  WBC: 106 x10_2/uL
  KIDNEY_L: 1 g
  KIDNEY_R: 1 g
  KIDNEY_TOTAL: 2 g
  LIVER: 9.3 g
  A/G: 1.9
  ALP: 1390.6 IU/L
  ALT: 36 IU/L
  AST: 64 IU/L
  BUN: 31.6 mg/dL
  CRE: 0.4 mg/dL
  Ca: 11.1 mg/dL
  Cl: 96.2 meq/L
  DBIL: 0.016 mg/dL
  GLC: 211.2 mg/dL
  IP: 10.6 mg/dL
  K: 4.5 meq/L
  LDH: 122.2 IU/L
  Na: 131 meq/L
  PL: 157.4 mg/dL
  RALB: 3.9 g/dL
  TBIL: 0.084 mg/dL
  TC: 92.4 mg/dL
  TG: 49.4 mg/dL
  TP: 5.9 g/dL
  gamma-GTP: 1 IU/L
9 h
  TERMINAL_BW: 202.3 g
  APTT: 17.8 s
  Bas: 0%
  Eos: 1%
  Fbg: 249 mg/dL
  Hb: 12.8 g/dL
  Ht: 39.2%
  Lym: 74.4%
  MCH: 20.9 pg
  MCHC: 32.7%
  MCV: 63.9 fL
  Mono: 7.4%
  Neu: 17%
  PT: 12.5 s
  Plat: 124.6 x10_4/uL
  RBC: 613.2 x10_4/ul
  Ret: 8.9%
  WBC: 98.6 x10_2/uL
  KIDNEY_L: 1 g
  KIDNEY_R: 1 g
  KIDNEY_TOTAL: 2 g
  LIVER: 8.6 g
  A/G: 2.2
  ALP: 1194.8 IU/L
  ALT: 29.6 IU/L
  AST: 64.2 IU/L
  BUN: 31.8 mg/dL
  CRE: 0.3 mg/dL
  Ca: 11.1 mg/dL
  Cl: 98.6 meq/L
  DBIL: 0.018 mg/dL
  GLC: 197.4 mg/dL
  IP: 10.7 mg/dL
  K: 4.9 meq/L
  LDH: 129.4 IU/L
  Na: 132.8 meq/L
  PL: 137.6 mg/dL
  RALB: 3.8 g/dL
  TBIL: 0.08 mg/dL
  TC: 77.8 mg/dL
  TG: 40.6 mg/dL
  TP: 5.6 g/dL
  gamma-GTP: 0.4 IU/L
24 h
  TERMINAL_BW: 220.4 g
  APTT: 16.2 s
  Bas: 0%
  Eos: 1%
  Fbg: 236.7 mg/dL
  Hb: 12.6 g/dL
  Ht: 38.7%
  Lym: 66.8%
  MCH: 21.1 pg
  MCHC: 32.7%
  MCV: 64.6 fL
  Mono: 10.6%
  Neu: 21.2%
  PT: 12.4 s
  Plat: 121 x10_4/uL
  RBC: 599 x10_4/ul
  Ret: 9.6%
  WBC: 88.8 x10_2/uL
  KIDNEY_L: 1 g
  KIDNEY_R: 1 g
  KIDNEY_TOTAL: 2.1 g
  LIVER: 10.4 g
  A/G: 1.9
  ALP: 1283.2 IU/L
  ALT: 33.4 IU/L
  AST: 60 IU/L
  BUN: 20 mg/dL
  CRE: 0.3 mg/dL
  Ca: 11.1 mg/dL
  Cl: 103.6 meq/L
  DBIL: 0 mg/dL
  GLC: 195.2 mg/dL
  IP: 8.4 mg/dL
  K: 5.4 meq/L
  LDH: 128.4 IU/L
  Na: 136.4 meq/L
  PL: 150 mg/dL
  RALB: 3.5 g/dL
  TBIL: 0.014 mg/dL
  TC: 81.4 mg/dL
  TG: 110 mg/dL
  TP: 5.3 g/dL
  gamma-GTP: 1.4 IU/L
